{"source": "patent EP4353711A1", "about": "“QUINOLIN-2-YL NITRONES FOR THE TREATMENT AND PREVENTION OF STROKE” (Consejo Superior De Investigaciones Científicas, priority 2022, dated 2024)", "test_system": "male C57BL/6J mice", "experiment": "pMCAO stroke model, infarct volume by T2-weighted MRI", "format": "in vivo", "details": "85 mg/kg QN11 intraperitoneally 15 min after arterial ligature", "procedure": "To study of the effects of QN11 on stroke recovery, administration of the vehicle and QN11 molecule was performed intraperitoneally, to 8-week-old male C57BL/6J mice (Harlan) weighing 25-30 g. All procedures with animals were carried out under a protocol approved by the Ethical Committee of the Spanish National Research Council (CSIC), and recommendations of the European Council. A special effort was made to keep to a minimum necessary the number of animals to achieve adequate significance. For surgery, anaesthesia induction was carried out with 3% isoflurane (in 70% N2O, 30% O2), followed by 2% isoflurane for maintenance during stroke procedure. Rectal temperature was maintained at 36.5 °C with the use of a heating pad. The common branch of the middle cerebral artery was, after craniotomy, exposed and occluded permanently by suture ligation. To ensure a complete artery occlusion during surgery, cortical blood flow was monitored by non-invasive laser Doppler flowmetry, as a quality control, with the aid of a Perimed equipment (PeriFlux System 5000 Stroke Model Monitor, Perimed, Järfälla, Sweden). […] Animals subjected to surgery for longer than 15 min were excluded of the study. Physiological parameters were maintained. […]\nMRI is the most commonly used diagnostic tool for stroke. […] All MRI data was analysed using ImageJ software. […]"}
{"smiles": "[O-]/[N+](=C\\c1ccc2cccc(O)c2n1)Cc1ccccc1", "note": "[QN11, (Z)-N-Benzyl-1-(8-hydroxyquinolin-2-yl)methanimine oxide]", "values": [{"measurement": "reduction in the percentage of brain infarct volume", "setting": "MRI 48 h after pMCAO, compared with vehicle-treated animals (group b)", "value": "74,47%"}, {"measurement": "infarct volume with regard to the whole brain volume", "setting": "T2WI MRI 48 h after pMCAO, vehicle group b 2.453 %", "value": 0.6262, "unit": "%"}]}
